From article PMC10600247, “Impact of C- and N-terminal protection on the stability, metal chelation and antimicrobial properties of calcitermin” (Scientific Reports, 2023)
Residues, ends and D or L forms follow the SMILES beside them.

Key:
C. albicans (ATCC 10231) = experiment: In vitro antifungal CFU assay; format: cell-based, Candida albicans; settings: pH 5.4; for mean CFU number ± S.D.: per 0.1 mL
Procedure: (§1) All microbes were grown at 37 °C in Tryptic Soy Broth (TSB; Biolife, Milan, Italy) or Tryptic Soy Agar plates (TSA, Biolife, Milan, Italy). Peptides were tested at a final concentration C = 0.128, 0.064, 0.032 mg/mL, in the presence or absence of ZnCl2 or CuCl2, at a M:L molar ratio 0.9:1. Briefly, all the microbes were expanded in TSB at 37 °C under agitation for 12 h and then sub-cultured by 1:10 dilution in TSB under the same conditions until reaching OD600nm = 0.3–0.4, as measured by spectrophotometric reading using a GENESYS 10S UV–Vis spectrophotometer (Thermo Scientific, Milan, Italy), corresponding to 0.9–1.2 × 10^7 colony forming units (CFU) per mL, 1.5–2 × 10^8 CFU/mL and 2.4–3.2 × 10^8 CFU/mL, for C. albicans, S. aureus and E. coli respectively. The cultures were then centrifuged at 4500 rpm for 10 min in a SL 8 centrifuge (TX-150 Rotor) (Thermo Scientific, Milan, Italy), and the cellular pellets were washed with PBS pH 5.4. Pelletized cultures were then suspended in 10 mL of PBS pH 5.4, then the suspensions were diluted to a final concentration of 10^4 CFU/mL. Aliquots of 100 µl (corresponding to 10^3 CFU) were seeded in each well of a 96-wells plate. 3 µl of TSB at pH 5.4 were added to each well to obtain a final 1.5% TSB concentration in the culture medium. Peptides were serially diluted in PBS pH 5.4 to C = 0.257, 0.128, and 0.064 mg/mL. ZnCl2 and CuCl2 solutions were added where requested to obtain a M:L ratio 0.9:1. 100 µl of the prepared peptides ± ZnCl2/CuCl2 solutions were then added to each well, obtaining the final 0.128, 0.064 and 0.032 mg/mL peptide concentrations in a total 0.2 mL volume. PBS alone and PBS + ZnCl2/CuCl2 solutions were included as controls. The plates were incubated at 37 °C on a platform rocker with slow stirring for 3 and 24 h. At the end of the incubation times, 100 µl aliquots were taken from each sample and diluted in PBS pH 5.4 to be seeded on TSA plates. Specifically, aliquots were diluted 1:10 at 3 h, and 1:200, 1:100,000 and 1:10 at 24 h, for C. albicans, E. coli, and S. aureus respectively. After incubation for 24 h at 37 °C, grown CFUs were enumerated. Samples were assayed in triplicate in two independent experiments. Student’s t-test was used for the evaluation of significance in biological tests; a p value ≤ 0.05 was considered significant.

E. coli (ATCC 25922) = experiment: In vitro anti-E. coli CFU assay; format: cell-based, Escherichia coli; settings: pH 5.4; for mean CFU number ± S.D.: per 0.1 mL
Procedure: as §1

[1] = peptide 0.032 mg/mL + CuCl2 (0.9:1), 3 h
[2] = peptide 0.032 mg/mL + CuCl2 (0.9:1), 24 h
[3] = peptide 0.032 mg/mL + ZnCl2 (0.9:1), 3 h
[4] = peptide 0.032 mg/mL + ZnCl2 (0.9:1), 24 h
[5] = peptide 0.064 mg/mL + CuCl2 (0.9:1), 3 h
[6] = peptide 0.064 mg/mL + CuCl2 (0.9:1), 24 h
[7] = peptide 0.064 mg/mL + ZnCl2 (0.9:1), 3 h
[8] = peptide 0.064 mg/mL + ZnCl2 (0.9:1), 24 h
[9] = peptide 0.128 mg/mL + CuCl2 (0.9:1), 3 h
[10] = peptide 0.128 mg/mL + CuCl2 (0.9:1), 24 h
[11] = peptide 0.128 mg/mL + ZnCl2 (0.9:1), 3 h
[12] = peptide 0.128 mg/mL + ZnCl2 (0.9:1), 24 h
[13] = peptide alone 0.032 mg/mL, 24 h
[14] = peptide alone 0.064 mg/mL, 24 h
[15] = peptide alone 0.128 mg/mL, 24 h

Structure (SMILES): CC[C@H](C)[C@H](NC(=O)[C@H](C)NC(=O)[C@@H](NC(C)=O)C(C)C)C(=O)N[C@@H](C)C(=O)N[C@@H](CC(C)C)C(=O)N[C@@H](CCCCN)C(=O)N[C@@H](C)C(=O)N[C@@H](C)C(=O)N[C@@H](Cc1c[nH]cn1)C(=O)N[C@@H](Cc1ccc(O)cc1)C(=O)N[C@@H](Cc1c[nH]cn1)C(=O)N[C@H](C(=O)N[C@@H](Cc1c[nH]cn1)C(=O)N[C@@H](CCCCN)C(=O)N[C@@H](CCC(=O)O)C(=O)O)[C@@H](C)O [L1, Ac-VAIALKAAHYHTHKE] (Ac-VAIALKAAHYHTHKE-OH)
- CFU decrease/increase with respect to untreated controls (C. albicans (ATCC 10231); [1]): -27.3%
- mean CFU number ± S.D. (C. albicans (ATCC 10231); [1]): 40 ± 28 CFU
- mean CFU number ± S.D. (C. albicans (ATCC 10231); [2]): 1,908 ± 160 CFU
- CFU decrease/increase with respect to untreated controls (C. albicans (ATCC 10231); [3]): +16%
- mean CFU number ± S.D. (C. albicans (ATCC 10231); [3]): 67 ± 4 CFU
- CFU decrease/increase with respect to untreated controls (C. albicans (ATCC 10231); [4]): -2%
- mean CFU number ± S.D. (C. albicans (ATCC 10231); [4]): 2,230 ± 326 CFU
- CFU decrease/increase with respect to untreated controls (C. albicans (ATCC 10231); [5]): -27.3%
- mean CFU number ± S.D. (C. albicans (ATCC 10231); [5]): 40 ± 24 CFU
- mean CFU number ± S.D. (C. albicans (ATCC 10231); [6]): 1,576 ± 112 CFU
- CFU decrease/increase with respect to untreated controls (C. albicans (ATCC 10231); [7]): +60%
- mean CFU number ± S.D. (C. albicans (ATCC 10231); [7]): 88 ± 7 CFU
- mean CFU number ± S.D. (C. albicans (ATCC 10231); [8]): 1,619 ± 165 CFU
- CFU decrease/increase with respect to untreated controls (C. albicans (ATCC 10231); [9]): -27.3%
- mean CFU number ± S.D. (C. albicans (ATCC 10231); [9]): 40 ± 11 CFU
- mean CFU number ± S.D. (C. albicans (ATCC 10231); [10]): 1,428 ± 24 CFU
- CFU decrease/increase with respect to untreated controls (C. albicans (ATCC 10231); [11]): +31%
- mean CFU number ± S.D. (C. albicans (ATCC 10231); [11]): 72 ± 10 CFU
- mean CFU number ± S.D. (C. albicans (ATCC 10231); [12]): 265 ± 108 CFU
- mean CFU number ± S.D. (C. albicans (ATCC 10231); peptide alone 0.032 mg/mL, 3 h): 40 ± 10 CFU
- mean CFU number ± S.D. (C. albicans (ATCC 10231); [13]): 1,789 ± 225 CFU
- CFU decrease/increase with respect to untreated controls (C. albicans (ATCC 10231); peptide alone 0.064 mg/mL, 3 h): -1.8%
- mean CFU number ± S.D. (C. albicans (ATCC 10231); peptide alone 0.064 mg/mL, 3 h): 54 ± 6 CFU
- mean CFU number ± S.D. (C. albicans (ATCC 10231); [14]): 1,807 ± 433 CFU
- CFU decrease/increase with respect to untreated controls (C. albicans (ATCC 10231); peptide alone 0.128 mg/mL, 3 h): -51%
- mean CFU number ± S.D. (C. albicans (ATCC 10231); peptide alone 0.128 mg/mL, 3 h): 27 ± 0.6 CFU
- mean CFU number ± S.D. (C. albicans (ATCC 10231); [15]): 1,666 ± 229 CFU
- mean CFU number ± S.D. (E. coli (ATCC 25922); [1]): 372 ± 16 CFU
- CFU decrease/increase with respect to untreated controls (E. coli (ATCC 25922); [2]): -15%
- mean CFU number ± S.D. (E. coli (ATCC 25922); [2]): 147 ± 6 CFU
- mean CFU number ± S.D. (E. coli (ATCC 25922); [3]): 343 ± 13 CFU
- CFU decrease/increase with respect to untreated controls (E. coli (ATCC 25922); [4]): -6%
- mean CFU number ± S.D. (E. coli (ATCC 25922); [4]): 163 ± 18 CFU
- mean CFU number ± S.D. (E. coli (ATCC 25922); [5]): 385 ± 24 CFU
- mean CFU number ± S.D. (E. coli (ATCC 25922); [6]): 58 ± 8 CFU
- mean CFU number ± S.D. (E. coli (ATCC 25922); [7]): 198 ± 7 CFU
- CFU decrease/increase with respect to untreated controls (E. coli (ATCC 25922); [8]): -13%
- mean CFU number ± S.D. (E. coli (ATCC 25922); [8]): 149 ± 7 CFU
- mean CFU number ± S.D. (E. coli (ATCC 25922); [9]): 151 ± 30 CFU
- mean CFU number ± S.D. (E. coli (ATCC 25922); [10]): 17 ± 18 CFU
- mean CFU number ± S.D. (E. coli (ATCC 25922); [11]): 45 ± 18 CFU
- CFU decrease/increase with respect to untreated controls (E. coli (ATCC 25922); [12]): +8%
- mean CFU number ± S.D. (E. coli (ATCC 25922); [12]): 187 ± 12 CFU
- mean CFU number ± S.D. (E. coli (ATCC 25922); peptide alone 0.032 mg/mL, 3 h): 749 ± 47 CFU
- CFU decrease/increase with respect to untreated controls (E. coli (ATCC 25922); [13]): +1%
- mean CFU number ± S.D. (E. coli (ATCC 25922); [13]): 174 ± 6 CFU
- mean CFU number ± S.D. (E. coli (ATCC 25922); peptide alone 0.064 mg/mL, 3 h): 634 ± 10 CFU
- CFU decrease/increase with respect to untreated controls (E. coli (ATCC 25922); [14]): -15%
- mean CFU number ± S.D. (E. coli (ATCC 25922); [14]): 146 ± 17 CFU
- mean CFU number ± S.D. (E. coli (ATCC 25922); peptide alone 0.128 mg/mL, 3 h): 625 ± 76 CFU
- mean CFU number ± S.D. (E. coli (ATCC 25922); [15]): 140 ± 11 CFU
